Data as given in the NIST ThermoML archive (doi:10.1021/je700338t).

Assays:
[1] = xn = mol fraction of the nth substance listed; conditions: 298.15 K, 101 kPa, Liquid; for mass density: Vibrating tube method
[2] = refractive index (Na D-line) (dimensionless); xn = mol fraction of the nth substance listed; conditions: 298.15 K, 101 kPa, Liquid
[3] = refractive index (Na D-line) (dimensionless); conditions: 298.15 K; 101.33 kPa; Liquid; Standard Abbe refractometry
[4] = 298.15 K, 101.33 kPa, Liquid; for speed of sound: Sing-around technique in a fixed-path interferometer

CCCCn1cc[n+](C)c1.F[P-](F)(F)(F)(F)F [1-butyl-3-methylimidazolium hexafluorophosphate] + CO
Conditions | refractive index, [2] | viscosity, [1] [mPa·s]
x1 = 0.0503 | 1.348 | 0.913
x1 = 0.0993 | 1.3636 | 1.483
x1 = 0.1517 | 1.371 | 2.331
x1 = 0.1969 | 1.3768 | 3.059
x1 = 0.3024 | 1.3872 | 6.057
x1 = 0.3531 | 1.3892 | 8.072
x1 = 0.4106 | 1.3941 | 11.03
x1 = 0.451 | 1.3961 | 13.52
x1 = 0.502 | 1.3986 | 17.29
x1 = 0.6015 | 1.4015 | 27.41
x1 = 0.7082 | 1.4045 | 45.95
x1 = 0.7989 | 1.4066 | 66.79
x1 = 0.8889 | 1.4078 | 107.94

CCCCn1cc[n+](C)c1.F[P-](F)(F)(F)(F)F [1-butyl-3-methylimidazolium hexafluorophosphate] + C[S+](C)[O-]
Conditions | mass density, [1] [kg/m3] | refractive index, [2] | speed of sound, [1] [m/s] | viscosity, [1] [mPa·s]
x1 = 0.0011 | 1096.21 | – | 1484.8 | –
x1 = 0.0024 | 1097.26 | – | 1484.9 | –
x1 = 0.0187 | 1109.73 | – | 1483.5 | –
x1 = 0.0321 | 1119.44 | – | 1482.4 | –
x1 = 0.05 | – | 1.4676 | – | 2.749
x1 = 0.0552 | 1135.09 | – | 1480.5 | –
x1 = 0.0635 | 1140.41 | – | 1479.9 | –
x1 = 0.0996 | 1161.89 | – | 1477.3 | –
x1 = 0.0997 | – | 1.4606 | – | 3.698
x1 = 0.1477 | – | 1.4546 | – | 4.962
x1 = 0.153 | 1189.47 | – | 1473.7 | –
x1 = 0.1977 | – | 1.4491 | – | 6.489
x1 = 0.2381 | 1225.52 | – | 1469.4 | –
x1 = 0.2995 | – | 1.4396 | – | 11.95
x1 = 0.3372 | 1258.28 | – | 1464.5 | –
x1 = 0.3524 | – | 1.4361 | – | 16
x1 = 0.3997 | – | 1.4331 | – | 21.17
x1 = 0.4328 | – | 1.4309 | – | 24.61
x1 = 0.5018 | – | 1.4278 | – | 36.98
x1 = 0.5586 | 1309.44 | – | 1454.9 | –
x1 = 0.598 | – | 1.4226 | – | 56.31
x1 = 0.7043 | – | 1.4182 | – | 83.73
x1 = 0.7791 | 1342.89 | – | 1448.2 | –
x1 = 0.7812 | – | 1.4158 | – | 117.54
x1 = 0.893 | – | 1.4125 | – | 173.32
x1 = 0.925 | 1359.3 | – | 1444.7 | –

CC#N [acetonitrile]
Conditions | mass density [kg/m3] | refractive index | speed of sound [m/s] | viscosity [mPa·s]
[3] | – | 1.3419 | – | –
[4] | 776.565 | – | 1278.7 | 0.339

C[S+](C)[O-] [dimethyl sulfoxide]
Conditions | mass density [kg/m3] | refractive index | speed of sound [m/s] | viscosity [mPa·s]
[3] | – | 1.4769 | – | –
[4] | 1095.3 | – | 1485 | 1.961

CO [methanol]
Conditions | mass density [kg/m3] | refractive index | speed of sound [m/s] | viscosity [mPa·s]
[3] | – | 1.3269 | – | –
[4] | 786.654 | – | 1102.9 | 0.54

C1CCOC1 [tetrahydrofuran]
Conditions | mass density [kg/m3] | refractive index | speed of sound [m/s] | viscosity [mPa·s]
[3] | – | 1.405 | – | –
[4] | 882.008 | – | 1278.2 | 0.449
